This note sets out measurements from US11459327B1, “Cycloalkyl and hetero-cycloalkyl inhibitors, preparation methods therefor, and use thereof” (Suzhou Zelgen Biopharmaceuticals Co., Ltd., priority 2019, dated 2022).

Each structure is given as a SMILES string.

Series [1] is described as follows: Pharmacokinetics test evaluation in rats, plasma concentration by LC/MS/MS. The format is in vivo. Particulars: male SD rats, 15 mg/kg by gavage; for T1/2 / Tmax / AUC / Cmax: n = 4, mean; for AUC / Cmax: rat, plasma, po. As for the experimental part:
Male SD rats, with a body weight of about 220 g, were given 15 mg/kg solution of the compound of the invention or the control compound by gavage after overnight fasting [10% […] (captisol) and 50 mM sodium citrate (pH 5) as vehicle]. Blood samples were collected at 0.5, 1.0, 2.0, 4.0, 6.0, 8.0, 12.0 and 24 hours after the compound was administrated, and the concentrations of the compound or the control compound in plasma were determined by LC/MS/MS.
The plasma concentration-time curves of Examples 13 and 14 and control compounds were shown in FIG. 1, and the pharmacokinetics parameters were shown in Table 2: […]

Series [2] concerns NCI-H358(KRAS^G12C mutation) cells. The series is described as follows: Cell assay of antiproliferative activity (Celltiter-Glo, 5 days) against NCI-H358 cells. Type of series: cell-based. Particulars: 5 days incubation. The procedure, abridged: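 Cells plated overnight, then given a 10-point compound series (stock dilutions 50 μM to 0.003 μM, 100 nL added per well) and grown 5 days. Luminescence read after 10 min shaking at room temperature. IC50 from curve fitting.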

In series [3] the test system is A549(KRAS^G12S mutation) cells. The series is described as follows: Cell assay of antiproliferative activity (Celltiter-Glo, 5 days) against A549 cells. The format is cell-based. Particulars: Homo sapiens, 120 h, 5 days incubation. As for the experimental part:
Cell assay of antiproliferative activity of compounds against NCI-H358(KRAS^G12C mutation) and A549(KRAS^G12S mutation) cells.
40 μl phosphate buffer was added to the outer wells of the 384 microplate, and 40 μl cell suspension to be tested was added to the other wells. Then the microplate was incubated in a carbon dioxide incubator overnight.
The compounds to be tested were gradiently diluted, each compound was performed 10 concentration gradients (diluted from 50 μM to 0.003 μM) and added 100 nL to the corresponding wells in the microplate. After addition, 40 μl of phosphate buffer was added to each well in rows A and P and columns 1 and 24, and then the microplate was incubated in a carbon dioxide incubator for 5 days.
20 μL of Promega Celltiter-Glo reagent was added to each well of the microplate, and then the luminescence signal was stabilized by oscillating at room temperature for 10 min. Then PekinElmer Envision multi-label analyzer was used to read.
Finally, GraphPad Prism software was used to calculate the IC50 value of the compound and the fitting curve was drawn.
Anti-proliferative activity of the compounds of the present invention against NCI-H358(KRAS^G12C mutation) and A549(KRAS^G12S mutation) cells were shown in Table 1.
(ATP-based viability assays read luminescence as a measure of living cells.)

Another series concerns NCI-H358 tumor cells. The series is described as follows: Pharmacodynamic testing evaluation of anti-tumor activity (H358 CDX tumor model). Type of series: in vivo. Particulars: nude rats. How it is done:
Pharmacodynamic Testing Evaluation of Anti-Tumor Activity (11358 CDX Tumor Model)
100 uL suspension containing 5×10^6 NCI-H358 tumor cells was subcutaneously injected into the right posterior back of nude rats. The health of the rat was monitored daily. Measurements were started when the tumor grew palpable.

A further series has as its system MIA PaCa-2 tumor cells. Particulars: MIA PaCa-2 CDX, nude rats. How it is done:
Pharmacodynamic Testing Evaluation of Anti-Tumor Activity (MIA PaCa-2 CDX Tumor Model)
100 uL suspension containing 5×10^6 MIA PaCa-2 tumor cells was subcutaneously injected into the right posterior abdomen of nude rats. The health of the rat was monitored daily. Measurements were started when the tumor grew palpable. The tumor volume calculation formula was adopted: 0.5×L×W^2, where L and W represent tumor length and width, respectively. The tumor grew to ˜200 mm^3, the rats were randomly divided into groups. Rats were intragastrically administrated the corresponding dose (7.5 mg/Kg) of the compound's CMC-Na suspension every day, and their general status was monitored at the same time. The tumor was measured 3 times a week, and the weight was measured twice a week.

Setting [4] is: 30 mg/Kg intragastrically every day, Day 20.
[5] abbreviates: 7.5 mg/Kg intragastrically every day, Day 20.

The Tmax is the time at which the peak concentration occurs. Broadly, the AUC is concentration integrated over time. Read a high AUC as more exposure. The term Cmax denotes the maximum level reached in the sampled fluid or tissue. As to `C=C(F)C(=O)N1CCN(c2nc(OC[C@@H]3CCCN3C)nc3c2CCN(c2cccc4cccc(Cl)c24)C3)CC1CC#N` (stereo partly shown) [Control compound, reference compound], in series [1], the T1/2 was 2.47 h, the Tmax turned out to be 4.0 h, the exposure (AUC) is 830 ng·h/mL and the peak concentration (Cmax) is 123 ng/mL.

One may read the IC50 as the midpoint of a concentration-inhibition curve. Read a low IC50 as greater potency. With `C=C(F)C(=O)N1CCN(c2nc(OCCN(C)C3CCC3)nc3c2CCN(c2cccc4ccc(F)c(Cl)c24)C3)CC1CC#N` (stereo not shown) [Example 14, 2-(4-(7-(8-chloro-7-fluoronaphthalen-1-yl)-2-(2-(cyclobutyl(methyl)amino)ethoxy)-5,6,7,8-tetrahydropyrido[3,4-d]pyrimidin-4-yl)-1-(2-fluoroacroloyl)piperazin-2-yl) acetonitrile], half-maximal inhibition in series [2] (Homo sapiens, NCI-H358, 120 h) (IC50) required 90 nM. Also, in series [3], half-maximal inhibition (IC50) required 6.2 µM. Also, in series [1], the T1/2 came out at 1.69 h, the time to peak (Tmax) stood at 1.25 h, the AUC was determined as 392 ng·h/mL and the peak level (Cmax) was 85.1 ng/mL.

`C=C(F)C(=O)N1CCN(c2nc(OCC3(CN(C)C)CC3)nc3c2CCN(c2cccc4cccc(Cl)c24)C3)C[C@@H]1CC#N` [Example 27]: the “% TGI” value in the series on NCI-H358 tumor cells (setting [4]) came out at 89.8%; in the series with MIA PaCa-2 tumor cells (setting [5]) it was 66.6%. Also, the “% Tumor Growth” value worked out at 182% in the series on NCI-H358 tumor cells (setting [4]) and 145.4% in the series with MIA PaCa-2 tumor cells (setting [5]). The “TV Day 0” value in the series with NCI-H358 tumor cells (Day 0 (at grouping), 30 mg/Kg intragastrically every day) worked out at 209 mm^3; with MIA PaCa-2 tumor cells (Day 0 (at grouping), 7.5 mg/Kg intragastrically every day), 197 mm^3. The “TV Day 20” value is recorded as 471 mm^3 in the series on NCI-H358 tumor cells (Day 20, 30 mg/Kg intragastrically every day) and 518 mm^3 in the series with MIA PaCa-2 tumor cells (Day 20, 7.5 mg/Kg intragastrically every day). In addition, half-maximal inhibition in series [2] (IC50) was put at 14 nM.

The compound `C=C(F)C(=O)N1CCN(c2nc(OCC3(CN(C)C)CC3)nc3c2CCN(c2cccc4cccc(Cl)c24)C3)CC1CC#N` (stereo not shown) [Example 13] yielded a concentration for half-maximal inhibition (IC50) in series [2] (Homo sapiens, NCI-H358, 120 h) of 55 nM. This compound also came in with a 50% inhibitory concentration (IC50) in series [3] of 6 µM. Further, in series [1], the T1/2 turned out to be 2.33 h, the time to peak (Tmax) amounted to 4.0 h, the AUC worked out at 1400 ng·h/mL and the Cmax came out at 163 ng/mL. Moreover, the bioavailability result in series [1] (conclusion in words) is on record as “excellent bioavailability”. Also, the “metabolic properties in rats compared with the control compound” value in series [1] (higher Cmax and higher plasma exposure AUC) is listed as “better metabolic properties in rats”.

`C=CC(=O)N1CCN(c2nc(OCC3(CN(C)C)CCC3)nc3c2CCN(c2cccc4cccc(Cl)c24)C3)CC1CC#N` (stereo not shown) [Example 3, 2-(1-acroloyl-4-(7-(8-chloronaphthalen-1-yl)-2-((1-((dimethylamino)methyl)cyclobutyl)methoxyl)-5,6,7,8-tetrahydropyrido[3,4-d]pyrimidin-4-yl)piperazin-2-yl) acetonitrile]: the IC50 in series [2] (Homo sapiens, NCI-H358, 120 h) amounted to 39 nM; in series [3], 7.1 µM.

Consider `C=CC(=O)N1CCN(c2nc(OC[C@@H](COC)N(C)C3CCC3)nc3c2CCN(c2cccc4cccc(C)c24)C3)CC1CC#N` (stereo partly drawn) [Example 1, 2-(1-acroloyl-4-(2-((R)-2-(cyclobutyl(methyl)amino)-3-methoxypropoxy)-7-(8-methylnaphthalen-1-yl)-5,6,7,8-tetrahydropyrido[3,4-d]pyrimidin-4-yl)piperazin-2-yl) acetonitrile], for which the IC50 in series [2] (Homo sapiens, NCI-H358, 120 h) came to 220 nM; in series [3], 7.1 µM.
